Source: patent US20070173787A1, “Thin-film nitinol based drug eluting stent” (priority 2005, published 2007)

Key:
[1] = system: human coronary artery smooth muscle cells; assay: Anti-proliferative activity in synchronized cultured human coronary artery smooth muscle cells stimulated with two percent fetal bovine serum; format: cell-based
From the text: The multiple curves represent various concentrations of topotecan ranging from zero to three hundred nanomolar concentrations.
The multiple curves represent various concentrations of etoposide ranging from zero to eight hundred nanomolar concentrations.
The multiple curves represent various concentrations of Panzem® ranging from zero to 100 micromolar concentrations.

[2] = system: human coronary artery smooth muscle cell; conditions: concentrations up to 30,000.00 nanomolar, FIG. 69
From the text: In vitro cytotoxicity tests or assays may be utilized to determine if drugs, agents and/or compounds are potentially toxic and the level of toxicity. Essentially, in vitro cytotoxicity assays determine acute necrotic effects by a drug causing direct cellular damage. The idea behind these assays is that toxic chemicals affect basic functions of cells which are common to all cells. […] There are a number of different assays that may be utilized. In the present invention, the cytotoxicity assay utilized is based upon the measurement of cellular metabolic activity. A reduction in metabolic activity is an indication of cellular damage. Tests that can measure metabolic function measure cellular ATP levels or mitochondrial activity via MTS metabolism. FIG. 69 is a graphical representation of the results of an MTS assay of Panzem®.

[3] = In vivo release kinetics from stent coatings in porcine pharmacokinetics studies; conditions: after eight (8) days of implantation; single layer sirolimus/cilostazol EVA/BMA coating with 100 μg BMA overcoat (FIG. 86), FIG. 84
From the text: The topcoat is two hundred micro grams.
The basecoat is applied to Bx Velocity® stents and implanted into Yorkshire pigs.
Another critical parameter for the performance of the thrombus resistance of a device coated with cilostazol is the duration of the drug release from the coating. This is of particular significance in the two weeks after device implantation. […] The purpose of the porcine PK study is to assess the local pharmacokinetics of a drug eluting stent at a given implantation time. Normally three stents are implanted in three different coronary arteries in a pig for a given time point and then retrieved for total drug recovery analysis. The stents are retrieved at predetermined time points; namely, 1, 3 and 8 days. The stents are extracted and the total amount of drug remaining on the stents is determined by analysis utilizing HPLC (high performance liquid chromatography) for total drug amount. The difference between the original amount of drug on the stent and the amount of drug retrieved at a given time represents the amount of drug released in that period. The continuous release of drug into surrounding arterial tissue is what prevents the neointimal growth and restenosis in the coronary artery. A normal plot represents the percentage of total drug released (%, y-axis) vs. time of implantation (day, x-axis). […] In this exemplary configuration, the stent 8600 is coated with two layers. The first layer 8602 comprises a combination of sirolimus, cilostazol and a copolymer matrix of EVA/BMA. The second layer or diffusion overcoat 8604 comprises only BMA. More specifically, in this embodiment, the first layer 8602 comprises a combination of sirolimus and cilastazol that is forty-five (45) percent by weight of the total weight of the first layer 8602 and an EVA/BMA copolymer matrix that is fifty-five (55) percent by weight of the total weight of the first layer 8602. The diffusion overcoat comprises one hundred (100 μg) micrograms of BMA.
Pigs are an established animal species for intravascular stent studies and accepted for such studies by the appropriate regulatory agencies. This in vivo study utilized male pigs of the species Sus Scrofa and strain Yoorkshire pigs. S.M.A.R.T.™ stents, available from Cordis Corporation, were placed into the iliac and femoral arteries, PALMAZ® GENESIS™ stents, available from Cordis Corporation, were placed in the renal arteries and CYPHER™ stents, available from Cordis Corporation, were placed in the coronary arteries.

[4] = system: platelet deposition and thrombus formation on the stent surface; assay: In vitro bovine blood loop model (In 111 labeled platelets); conditions: FIG. 83
From the text: The anti-thrombotic efficacy of the above-described three configurations is illustrated in FIG. 83. FIG. 83 illustrates the anti-thrombotic properties of the sirolimus/cilostazol combination coatings described above in an in vitro bovine blood loop model. In the in vitro bovine blood loop model, fresh bovine blood is heparinized to adjust for acute clotting time (ACT) of about two hundred (200) seconds. The platelet content in the blood is labeled through the use of Indium 111. In the study, a stent is deployed in a silicone tube, which is part of a closed loop system for blood circulation. The heparinzed blood is circulated through the closed loop system by means of a circulating pump. Blood clots and thrombus builds up on a stent surface over time and reduces the flow rate of blood through the stented loop. […] The control drug eluting stent is the Cypher® sirolimus eluting coronary stent available from Cordis Corporation. Bar 8304 is a stent coated with heparin and is available from Cordis Corporation under the […]® on the Bx Velocity® coronary stent trademark. Bar 8306 is a stent configured as set forth with respect to the architecture illustrated in FIG. 76. Bar 8308 is a stent configured as set forth with respect to the architecture illustrated in FIG. 80. Bar 8310 is a stent configured as set forth with respect to the architecture illustrated in FIG. 82.

SMILES | anti-proliferative activity ([1]; FIG. 66) | effect of addition on the anti-proliferative rapamycin dose response curve ([1]; topotecan to 300 nanomolar (FIG. 64), etoposide to eight hundred nanomolar (FIG. 65), Panzem to 100 micromolar (FIG. 68)) | cytotoxicity, MTS assay (cell survival) [2] | drug remaining in the drug coating [3] [%] | thrombus formation [4]
COc1cc2c(cc1O)CC[C@@H]1[C@@H]2CC[C@]2(C)[C@@H](O)CC[C@@H]12 [Panzem®, 2-methoxyestradiol] | extremely effective inhibitor of human coronary artery smooth muscle cell proliferation in vitro | increases the percent of inhibition of rapamycin alone | do not reduce human coronary artery smooth muscle cell survival |  | 
O=C1CCc2cc(OCCCCc3nnnn3C3CCCCC3)ccc2N1 [cilostazol, 6[4-(1-cyclohexyl-1H-tetrazol-5-yl)-butoxy]-3,4-dihydro-2-(1H)-quinolinone] |  |  |  | ~80 | significantly reduces thrombus formation
